The values that follow are results of earlier work, collected in patent US20230144779A1, “FORMULATIONS AND METHOD FOR TREATMENT OF INFLAMMATORY DISEASES” (VYOME THERAPEUTICS INC., priority 2019, published 2023).

For `COc1c(C)c2c(c(O)c1C/C=C(\C)CCC(=O)O)C(=O)OC2` [Mycophenolic acid (MPA), Mycophenolic acid], the solubility result is recorded as “Practical insoluble, 63 mcg/ml. MPA as such is not available in the market, it is available as salt form Hydrophilic nature as compared to its ester prodrug”.
